Source: PubChem BioAssay AID336 (DTP/NCI, 2004)
Where “and” joins values, the source holds several entries; their conditions need not be identical. Identical values can stand only once. Toxic doses and inconclusive results are not listed.

System: BDF1 mice, P388/VCR leukemia ip, median survival T/C
Assay: NCI In Vivo Anticancer Drug Screen. Data for tumor model P388 Leukemia resistant to Vincristine; NSC 67574 (intraperitoneal) in B6D2F1 (BDF1) mice
Details: endpoint: median survival time, higher = longer survival
Experimental: The antitumor activity of compounds was measured in mice bearing transplantable tumors. Survival or tumor size were measured and the results are expressed as the measurement made in the treated group (T) divided by the measurement made in the vehicle treated control group (C). The tumor model used in this assay is P388 Leukemia resistant to Vincristine; NSC 67574 (intraperitoneal) in B6D2F1 (BDF1) mice

[1] = dose: 25.0 mg/kg/injection, schedule: Q01DX010 (ip), vehicle: saline
[2] = dose: 50.0 mg/kg/injection, schedule: Q01DX010 (ip), vehicle: saline
[3] = dose: 10.0 mg/kg/injection, schedule: Q01DX010 (ip), vehicle: saline
[4] = dose: 500.0 micrograms/kg/injection, schedule: Q04DX003 (ip), vehicle: saline
[5] = dose: 1000.0 micrograms/kg/injection, schedule: Q04DX003 (ip), vehicle: saline
[6] = dose: 2000.0 micrograms/kg/injection, schedule: Q04DX003 (ip), vehicle: saline
[7] = dose: 4000.0 micrograms/kg/injection, schedule: Q04DX003 (ip), vehicle: saline
[8] = dose: 648.0 micrograms/kg/injection, schedule: Q04DX003 (ip), vehicle: saline

[I][Hg][CH2]C1COC([CH2][Hg][I])CO1 (configuration not stated)
T/C (dose: 0.78 mg/kg/injection, schedule: Q01DX010 (ip), vehicle: saline): 88 % of control | T/C (dose: 1.56 mg/kg/injection, schedule: Q01DX010 (ip), vehicle: saline): 103 % of control | T/C (dose: 3.13 mg/kg/injection, schedule: Q01DX010 (ip), vehicle: saline): 111 % of control

Nc1nc(=S)c2ncn(C3OC(CO)C(O)C3O)c2[nH]1 (configuration not stated)
T/C (dose: 0.5 mg/kg/injection, schedule: Q01DX010 (ip), vehicle: saline): 92 % of control | T/C (dose: 1.0 mg/kg/injection, schedule: Q01DX010 (ip), vehicle: saline): 107 % of control | T/C (dose: 2.0 mg/kg/injection, schedule: Q01DX010 (ip), vehicle: saline): 155 % of control | T/C (dose: 4.0 mg/kg/injection, schedule: Q01DX010 (ip), vehicle: saline): 110 % of control | T/C (dose: 8.0 mg/kg/injection, schedule: Q01DX010 (ip), vehicle: saline): 105 % of control | T/C (dose: 16.0 mg/kg/injection, schedule: Q01DX010 (ip), vehicle: saline): 100 % of control

CC1CC(C)(O)CC(C(O)CC2CC(=O)NC(=O)C2)C1=O (configuration not stated)
T/C (dose: 480.0 micrograms/kg/injection, schedule: Q01DX009 (ip), vehicle: saline): 105 % of control | T/C (dose: 800.0 micrograms/kg/injection, schedule: Q01DX009 (ip), vehicle: saline): 92 % of control

CN(Cc1cnc2nc(N)nc(N)c2n1)c1ccc(C(=O)N[C@@H](CCC(=O)O)C(=O)O)cc1
T/C (dose: 8.64 mg/kg/injection, schedule: Q04DX003 (ip), vehicle: sodium bicarbonate): 167 % of control | T/C (dose: 14.4 mg/kg/injection, schedule: Q04DX003 (ip), vehicle: sodium bicarbonate): 188 % of control | T/C (dose: 24.0 mg/kg/injection, schedule: Q04DX003 (ip), vehicle: sodium bicarbonate): 214 % of control

NC(C/[N+]([O-])=N/O)C(=O)O (configuration not stated)
T/C (dose: 173.0 mg/kg/injection, schedule: Q04DX003 (ip), vehicle: sodium bicarbonate): 157 % of control | T/C (dose: 288.0 mg/kg/injection, schedule: Q04DX003 (ip), vehicle: sodium bicarbonate): 179 % of control | T/C (dose: 480.0 mg/kg/injection, schedule: Q04DX003 (ip), vehicle: sodium bicarbonate): 181 % of control | T/C (dose: 800.0 mg/kg/injection, schedule: Q04DX003 (ip), vehicle: sodium bicarbonate): 118 % of control

Nc1nc2n[nH]nc2c(=O)[nH]1
T/C (dose: 25.0 mg/kg/injection, schedule: Q01DX010 (ip), vehicle: alkali diluted with saline): 155 % of control and 170 % of control | T/C (dose: 50.0 mg/kg/injection, schedule: Q01DX010 (ip), vehicle: alkali diluted with saline): 162 % of control and 191 % of control | T/C (dose: 100.0 mg/kg/injection, schedule: Q01DX010 (ip), vehicle: alkali diluted with saline): 170 % of control and 204 % of control | T/C (dose: 200.0 mg/kg/injection, schedule: Q01DX010 (ip), vehicle: alkali diluted with saline): 177 % of control and 204 % of control

O=C1CCC(N2C(=O)c3ccccc3C2=O)C(=O)N1 (configuration not stated)
T/C (dose: 62.5 mg/kg/injection, schedule: Q01DX010 (ip), vehicle: saline): 95 % of control | T/C (dose: 125.0 mg/kg/injection, schedule: Q01DX010 (ip), vehicle: saline): 91 % of control

O=C1C(NC(=O)C2CCCCC2)=C(N2CC2)C(=O)C(NC(=O)C2CCCCC2)=C1N1CC1
T/C [1]: 103 % of control | T/C [2]: 115 % of control | T/C (dose: 100.0 mg/kg/injection, schedule: Q01DX010 (ip), vehicle: saline): 115 % of control | T/C (dose: 200.0 mg/kg/injection, schedule: Q01DX010 (ip), vehicle: saline): 123 % of control

C[n+]1ccc(NC(=O)c2ccc(NC(=O)c3cccc(C(=O)Nc4ccc(C(=O)Nc5cc[n+](C)cc5)cc4)c3)cc2)cc1
T/C (dose: 5.0 mg/kg/injection, schedule: Q01DX010 (ip), vehicle: saline): 100 % of control | T/C [3]: 107 % of control | T/C (dose: 40.0 mg/kg/injection, schedule: Q01DX010 (ip), vehicle: saline): 166 % of control

CCC1(O)CC2CN(CCc3c([nH]c4ccccc34)C(C(=O)OC)(c3cc4c(cc3OC)N(C)C3C(O)(C(=O)NCCO)C(O)C5(CC)C=CCN6CCC43C65)C2)C1 (configuration not stated)
T/C [4]: 107 % of control | T/C [5]: 106 % of control | T/C [6]: 105 % of control | T/C [7]: 108 % of control

CCC1(O)CC2CN(CCc3c([nH]c4ccccc34)C(C(=O)OC)(c3cc4c(cc3OC)N(C)C3C(O)(C(N)=O)C(O)C5(CC)C=CCN6CCC43C65)C2)C1 (configuration not stated) (tested in a mixture with another compound)
T/C [4]: 107 % of control | T/C [8]: 106 % of control | T/C [5]: 118 % of control | T/C (dose: 1080.0 micrograms/kg/injection, schedule: Q04DX003 (ip), vehicle: saline): 100 % of control | T/C (dose: 1800.0 micrograms/kg/injection, schedule: Q04DX003 (ip), vehicle: saline): 98 % of control | T/C [7]: 110 % of control

O=c1[nH]cc(F)c(=O)[nH]1
T/C (dose: 2.5 mg/kg/injection, schedule: Q01DX010 (ip), vehicle: saline): 155 % of control | T/C [3]: 200 % of control | T/C (dose: 20.0 mg/kg/injection, schedule: Q01DX010 (ip), vehicle: saline): 116 % of control and 235 % of control | T/C (dose: 21.6 mg/kg/injection, schedule: Q04DX003 (ip), vehicle: saline): 154 % of control | T/C (dose: 36.0 mg/kg/injection, schedule: Q04DX003 (ip), vehicle: saline): 188 % of control | T/C (dose: 60.0 mg/kg/injection, schedule: Q04DX003 (ip), vehicle: saline): 252 % of control | T/C (dose: 100.0 mg/kg/injection, schedule: Q04DX003 (ip), vehicle: saline): 270 % of control

CCC1(O)CC2CN(CCc3c([nH]c4ccccc34)C(C(=O)OC)(c3cc4c(cc3OC)N(C)C3C(O)(C(=O)NCCSSCCNC(=O)C5(O)C(O)C6(CC)C=CCN7CCC8(c9cc(C%10(C(=O)OC)CC%11CN(CCc%12c%10[nH]c%10ccccc%12%10)CC(O)(CC)C%11)c(OC)cc9N(C)C58)C76)C(O)C5(CC)C=CCN6CCC43C65)C2)C1 (configuration not stated)
T/C (dose: 250.0 micrograms/kg/injection, schedule: Q04DX003 (ip), vehicle: saline): 117 % of control | T/C [8]: 154 % of control | T/C [5]: 161 % of control | T/C [6]: 164 % of control | T/C (dose: 3000.0 micrograms/kg/injection, schedule: Q04DX003 (ip), vehicle: saline): 90 % of control

COc1ccc(CC2C(=O)NC(C)C(=O)N(C)C3Cc4ccc(cc4)Oc4cc(ccc4O)CC(C(=O)NC(C)C(=O)NC(C)C(=O)N2C)N(C)C3=O)cc1 (configuration not stated)
T/C (dose: 4.32 mg/kg/injection, schedule: Q04DX003 (ip), vehicle: other): 108 % of control | T/C (dose: 7.2 mg/kg/injection, schedule: Q04DX003 (ip), vehicle: other): 103 % of control

O=C(Nc1ccc(C2=NCCN2)cc1)c1cc(C(=O)Nc2ccc(C3=NCCN3)cc2)cc([N+](=O)[O-])c1
T/C (dose: 167.0 mg/kg/injection, schedule: Q01DX010 (ip), vehicle: saline): 95 % of control | T/C (dose: 250.0 mg/kg/injection, schedule: Q01DX010 (ip), vehicle: saline): 100 % of control | T/C (dose: 375.0 mg/kg/injection, schedule: Q01DX010 (ip), vehicle: saline): 95 % of control | T/C (dose: 512.0 mg/kg/injection, schedule: Q01DX010 (ip), vehicle: saline): 100 % of control

COC(=O)C[C@](O)(CCC(C)(C)O)C(=O)O[C@@H]1C(OC)=C[C@]23CCCN2CCc2cc4c(cc2[C@H]13)OCO4
T/C (dose: 0.25 mg/kg/injection, schedule: Q01DX009 (ip), vehicle: saline): 92 % of control | T/C (dose: 0.5 mg/kg/injection, schedule: Q01DX009 (ip), vehicle: saline): 100 % of control | T/C (dose: 1.0 mg/kg/injection, schedule: Q01DX009 (ip), vehicle: saline): 88 % of control

CC(=O)Nc1ccc2nc3ccc(NC(C)=O)cc3[n+](-c3ccccc3)c2c1
T/C [1]: 91 % of control | T/C [2]: 87 % of control

COC1C(O)C(C)OC(OC2C(Oc3cccc4c(O)c5c(=O)oc6ccc(C)c7c(=O)oc(c34)c5c67)OC(C)C(O)C2O)C1O (configuration not stated)
T/C (dose: 43.2 mg/kg/injection, schedule: Q04DX003 (ip), vehicle: acid diluted with saline): 121 % of control | T/C (dose: 72.0 mg/kg/injection, schedule: Q04DX003 (ip), vehicle: acid diluted with saline): 114 % of control | T/C (dose: 200.0 mg/kg/injection, schedule: Q04DX003 (ip), vehicle: acid diluted with saline): 123 % of control
